Paper PMC6859627, “Growth of the facultative chemolithoautotroph Ralstonia eutropha on organic waste materials: growth characteristics, redox regulation and hydrogenase activity” (Microbial Cell Factories, 2019)

Key:
[1] = target: T1, FOF1-ATPase (FOF1-ATP synthase) (Cupriavidus necator, UniProt Q0K5M2); assay: phosphate release from ATP by membrane vesicles; assay type: biochemical; conditions: 5 mM ATP, 1 mM MgSO4, 50 mM Tris-HCl pH 7.0, 30 °C; 10 min preincubation; FN-grown cells; overall ATPase activity of vesicles
T1 construct: gene atpE; native complex in membrane vesicles (osmotic lysis), not purified; FOF1 share defined by DCCD sensitivity; with ATP synthase subunit a; ATP synthase subunit b; ATP synthase subunit alpha; ATP synthase subunit beta; ATP synthase gamma chain; ATP synthase subunit delta; ATP synthase epsilon chain

[2] = target: T2, SH (cytoplasmic, soluble hydrogenase) (Cupriavidus necator, UniProt P22317); assay: H2-dependent NAD+ reduction at […] nm, soluble extract; assay type: biochemical; conditions: 1 mM NAD+, H2-saturated 50 mM Tris/HCl pH 8.0, anaerobic, 30 °C
T2 construct: gene hoxF; native enzyme in soluble protein fraction of cell extract; hetero-hexamer HoxHYFUI2; with NAD-reducing hydrogenase HoxS subunit beta; NAD-reducing hydrogenase HoxS subunit gamma; NAD-reducing hydrogenase HoxS subunit delta; NAD-reducing hydrogenase subunit HoxI
T2 sequence (P22317 whole entry): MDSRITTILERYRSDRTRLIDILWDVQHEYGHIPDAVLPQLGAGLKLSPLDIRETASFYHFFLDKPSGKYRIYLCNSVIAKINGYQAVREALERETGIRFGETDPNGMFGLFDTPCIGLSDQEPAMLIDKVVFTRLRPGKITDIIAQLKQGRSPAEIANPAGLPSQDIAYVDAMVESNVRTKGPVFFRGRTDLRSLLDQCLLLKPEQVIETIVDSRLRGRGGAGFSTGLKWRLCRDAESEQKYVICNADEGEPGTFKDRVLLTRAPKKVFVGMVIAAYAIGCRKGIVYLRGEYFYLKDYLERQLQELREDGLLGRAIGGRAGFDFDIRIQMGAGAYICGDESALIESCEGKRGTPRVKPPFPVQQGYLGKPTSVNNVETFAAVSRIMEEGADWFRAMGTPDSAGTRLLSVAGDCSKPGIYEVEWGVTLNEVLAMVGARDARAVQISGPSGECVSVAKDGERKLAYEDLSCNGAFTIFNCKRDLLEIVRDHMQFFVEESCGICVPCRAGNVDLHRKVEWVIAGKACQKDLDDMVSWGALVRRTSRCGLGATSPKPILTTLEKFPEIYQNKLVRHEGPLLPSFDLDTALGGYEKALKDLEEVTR
T2 sequence (P22318 2-234 partner): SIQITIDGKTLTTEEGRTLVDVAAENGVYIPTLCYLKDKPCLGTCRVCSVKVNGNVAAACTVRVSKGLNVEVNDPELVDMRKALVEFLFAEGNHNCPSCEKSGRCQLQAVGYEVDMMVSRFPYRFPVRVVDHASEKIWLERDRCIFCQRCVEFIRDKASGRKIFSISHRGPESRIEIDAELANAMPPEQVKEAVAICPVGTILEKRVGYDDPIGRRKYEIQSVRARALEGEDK
T2 sequence (P22319 whole entry partner): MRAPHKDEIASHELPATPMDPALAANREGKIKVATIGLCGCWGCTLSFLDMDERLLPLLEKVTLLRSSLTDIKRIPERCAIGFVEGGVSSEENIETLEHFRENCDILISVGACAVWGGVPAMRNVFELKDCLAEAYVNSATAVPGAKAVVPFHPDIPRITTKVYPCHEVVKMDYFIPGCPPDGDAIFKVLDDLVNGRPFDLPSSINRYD
T2 sequence (P22320 2-464 partner): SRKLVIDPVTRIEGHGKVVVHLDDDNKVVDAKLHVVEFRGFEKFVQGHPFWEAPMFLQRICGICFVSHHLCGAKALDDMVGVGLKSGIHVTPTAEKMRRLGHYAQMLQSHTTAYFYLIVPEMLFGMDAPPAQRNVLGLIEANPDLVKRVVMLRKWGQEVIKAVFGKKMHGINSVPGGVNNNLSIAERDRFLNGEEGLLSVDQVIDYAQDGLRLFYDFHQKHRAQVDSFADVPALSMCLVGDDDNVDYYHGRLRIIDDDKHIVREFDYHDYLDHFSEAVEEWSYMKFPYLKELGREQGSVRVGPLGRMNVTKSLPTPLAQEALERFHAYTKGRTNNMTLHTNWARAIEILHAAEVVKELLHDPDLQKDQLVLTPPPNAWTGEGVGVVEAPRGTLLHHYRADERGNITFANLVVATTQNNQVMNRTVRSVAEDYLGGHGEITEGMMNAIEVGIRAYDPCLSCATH

| Compound | fold inhibition at 0.2 mM [1] | H2-dependent NAD+ reduction at 365 nm, soluble extract [2] |
| --- | --- | --- |
| C(=NC1CCCCC1)=NC1CCCCC1 [DCCD, N,N′-dicyclohexylcarbodiimide] | ~ 2.3 fold |  |
| NC(=O)c1ccc[n+]([C@@H]2O[C@H](COP(=O)(O)OP(=O)(O)OC[C@H]3O[C@@H](n4cnc5c(N)ncnc54)[C@H](O)[C@@H]3O)[C@@H](O)[C@H]2O)c1 [NAD^+] |  | hydrogen-oxidizing activity of SH was measured in anaerobic cuvettes with NAD^+ |
